Source: patent US5271944A, “Pharmacologically enhanced formulations” (Biofor, Ltd., priority 1991, dated 1993)

Experiments:
acetylcholine writhing = assay: mouse acetylcholine writhing test (analgesic activity); type: in vivo, mouse (CD-1); conditions: 1 mg/kg oral, 4 hours before intraperitoneal acetylcholine; writhes counted for 10 minutes
Procedure: This study was performed to evaluate and compare the analgesic effectiveness of the micronized and pulverized samples described in Example 1, Step A and Example 1, Step B. Analgesic activity was evaluated via the mouse acetylcholine writhing test using a modification of the procedure described by Collier et al in Nature (New Biol.), Volume 204: page 1316 (1964) and the British Journal of Pharmacology, Chemotherapy, Volume 32: page 295 (1968).
The test groups consisted of ten mile CD-1 mice (Charles River Laboratories) weighing 18-28 grams each. Test compounds suspended in 0.25% methylcellulose solution were administered orally by gavage and four hours later the mice were injected intraperitoneally with acetylcholine (0.55 mg/ml in 0.25% methyl cellulose). The number of writhes in each group of mice were counted for 10 minutes immediately following the injection of acetylcholine and percent inhibition was calculated as follows: […]

hind paw edema = assay: Anti-inflammatory activity: hind paw edema in adjuvant (Mycobacterium butyricum) arthritis rats; type: in vivo, rat (female Lewis); conditions: 1 mg/kg per day, dosed once daily for 4 days, paw volumes measured on fifth day
Procedure: The effectiveness of the micronized sample as an anti-inflammatory agent and its comparison to the pulverized form was evaluated.
This study is a modification of the method described by Wong, et al in the Journal of Pharmacology and Experimental Therapeutics, Vol. 185: No. 1, pages 127-138 (1973).
The left and right rear paws of female Lewis rats (Charles River Laboratories) weighing 160-180 grams each were measured by mercury displacement prior to injection (Day Zero).
Adjuvant arthritis was induced in this rat colony by subcutaneous injection of Mycobacterium butyricum (0.75 mg in 0.1 ml light mineral oil, Fisher) using an automated Cornwall syringe. On days 11-15 post-adjuvant, the injected animals with 0.25 to 0.76 ml paw edema were selected and distributed evenly, according to edema size, into control and experimental groups of ten rats each. Vehicle control and drug treatments were assigned to the groups at random. […] All animals were dosed once daily for 4 days and on the fifth day both hind paw volumes were again measured using mercury displacement.
The hind paw edema was determined for each rat by subtracting the hind paw volume measured on Day Zero from the hind paw volume measured on the fifth day of the study. Group means were determined and the drug effect was calculated as percent inhibition of the hind paw edema according to the following equation: […]

adjuvant polyarthritis = assay: Adjuvant polyarthritis in polyarthritic injected rats (hind feet weight); type: in vivo, rat (male Lewis); conditions: for ED50: oral once daily for 5 days (Days 9-13), hind feet weighed Day 15, 21600 min
Procedure: The object of this study was to compare the anti-inflammatory activity of the micronized and unmicronized samples when administered orally to polyarthritic injected rats.
This anti-inflammatory study was conducted according to the method described by Chang, Y., Pearson, C.M. and Abe, C. in Arthritis and Rheumatism, Volume 23: pp. 62-71 (1980).
Male Lewis rats weighing 200 to 220 grams were divided into groups of 5 and housed in hanging cages with food and water ad libitum. On Day Zero they were injected with 7.5 mg of N,N-dioctadecyl-N',N'bis(2-hydroxyethyl)propane diamine suspended in mineral oil subcutaneously at the base of the tail. On Day 9 the animals were weighed and compound administration was begun. The micronized and unmicronized samples described in Example 1, Steps A and B, were suspended in solution using a tissue homogenizer in 1% carboxy methyl cellulose. These compounds were administered orally once daily for 5 days (Days 9-13) with no dosing on day 14. On Day 15, the hind feet were removed just above the ankle joint and weighed, and percent difference from the diseased control was calculated.

Compound	% Inhibition (acetylcholine writhing assay) (acetylcholine writhing) [%]	% Inhibition (hind paw edema) (hind paw edema; listed as Example 1, Step B micronized) [%]	ED50 (adjuvant polyarthritis) [mg/kg]	increase in potency of micronized compared to unmicronized sample (adjuvant polyarthritis; ratio of ED50, adjuvant polyarthritis)	% Inhibition (hind paw edema) (hind paw edema) [%]	degree of increase in anti-inflammatory effectiveness attributable to micronization vs unmicronized product (adjuvant polyarthritis; general statement, test not named)
CN1OCCC(=Cc2cc(C(C)(C)C)c(O)c(C(C)(C)C)c2)C1=O [Example 1, Step A, dihydro-4-(3,5-di-tert-butyl-4-hydroxy-benzylidene)-2-methyl-2H-1,2-oxazin-3(4H)-one]	100	35	2.8	almost six fold increase in potency	–	–
CN1OCCC(=Cc2cc(C(C)(C)C)c(O)c(C(C)(C)C)c2)C1=O [Example 1, Step B, dihydro-4-(3,5-di-tert-butyl-4-hydroxy-benzylidene)-2-methyl-2H-1,2-oxazin-3(4H)-one]	63	–	16.2	–	20	–
CN1OCCC(=Cc2cc(C(C)(C)C)c(O)c(C(C)(C)C)c2)C1=O [active ingredient, dihydro-4-(3,5-di-tert-butyl-4-hydroxybenzylidene)-2-methyl-2H-1,2-oxazin-3(4H)-one]	–	–	–	–	–	at least six fold
